In PubChem BioAssay (NCI):
“And” between values parts separate entries of the source, which are not always exact repeats. Equal entries are not always repeated.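 Cells were grown in 96-well plates and exposed to each compound for 48 hours at five concentrations; endpoints were interpolated linearly between bracketing concentrations, or set to the highest concentration if not reached. GI50 = concentration required for 50% inhibition of growth. Definition used: TGI = concentration required for complete inhibition of growth.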

What was measured:
Test in all cases: growth of human tumour cells (NCI), 48 h
CAKI-1 renal = tested on: CAKI-1 renal
COLO 205 colon = tested on: COLO 205 colon
HCT-15 colon = tested on: HCT-15 colon
MDA-N = tested on: MDA-N
OVCAR-4 ovarian = tested on: OVCAR-4 ovarian
PC-3 prostate = tested on: PC-3 prostate
SK-MEL-5 melanoma = tested on: SK-MEL-5 melanoma
SN12C renal = tested on: SN12C renal
TK-10 renal = tested on: TK-10 renal
HL-60(TB) leukemia = tested on: HL-60(TB) leukemia

Row | Structure (SMILES) | TGI (CAKI-1 renal) [µM] | TGI (COLO 205 colon) [µM] | TGI (HCT-15 colon) [µM] | TGI (MDA-N) [µM] | TGI (OVCAR-4 ovarian) [µM] | TGI (PC-3 prostate) [µM] | TGI (SK-MEL-5 melanoma) | TGI (SN12C renal) | TGI (TK-10 renal) | TGI (HL-60(TB) leukemia) | GI50 (CAKI-1 renal) [µM] | GI50 (COLO 205 colon) [µM] | GI50 (HCT-15 colon) [µM] | GI50 (OVCAR-4 ovarian) [µM] | GI50 (SK-MEL-5 melanoma) | GI50 (SN12C renal) | GI50 (PC-3 prostate) [µM] | GI50 (TK-10 renal) | GI50 (HL-60(TB) leukemia) [µM]
1 | COc1ccc2c3c1OC1C(=O)C=CC4(CC2)N(C)CCC314 (stereo not given) | > 100 | 22.7 | > 100 | > 100 | > 100 | > 100 | 24.4 µM | > 100 µM | > 100 µM | – | – | – | – | – | – | – | – | – | –
2 | C=C/C(C)=C\CC1[C@](C)(O)CC[C@H]2C(C)(C)C(=O)CC[C@]12C (stereo not given in full) | > 100 | > 100 | > 100 | > 100 | > 100 | > 100 | > 100 µM | > 100 µM | > 100 µM | 60 µM | – | – | – | – | – | – | – | – | –
3 | CC1CCCC2(CC[N+](C)(CCC[N+](C)(C)C)CC2)C1 (stereo not given) | > 100 | > 100 | > 100 | > 100 | > 100 | > 100 | > 100 µM | > 100 µM | > 100 µM | 43.9 µM | – | – | – | – | – | – | – | – | –
4 | O=S(Nc1ccccc1)c1ccc(N2CCOCC2)cc1 (stereo not given) | – | > 100 | > 100 | – | > 100 | – | > 100 µM | > 100 µM | > 100 µM | > 100 µM | – | – | – | – | – | – | – | – | –
5 | CCOc1ccc(N/C(=C(/C(Cl)=C(/Cl)N(CC)CC)[N+](=O)[O-])n2nnc3ccccc32)cc1 | 26.9 | 37.2 | 38.4 | 70.4 | 52.8 | 41.9 | – | 49.6 µM | – | – | – | – | – | – | – | – | – | – | –
6 | ClCCCc1ccccc1C1=NCCc2ccccc21 | > 100 | 52.9 | > 100 | – | > 100 | > 100 | 40.5 µM | > 100 µM | > 100 µM | > 100 µM | – | – | – | – | – | – | – | – | –
7 | CCNCCCn1c2c(c3ccc(Cl)cc3c1=O)C(=O)c1cc(OC)cnc1-2 | 16.8 | 1.57 | 2.5 | – | 2.4 | – | 2.49 µM | 2.79 µM | – | – | 0.0472 | 0.146 | 1.02 | 0.542 | 0.813 µM | 0.675 µM | – | – | –
8 | C=C[C@@H](C)[C@H](NS(=O)(=O)c1ccc(C)cc1)C(=O)OCC | – | > 100 | > 100 | 83.6 | > 100 | > 100 | – | > 100 µM | > 100 µM | > 100 µM | – | – | – | – | – | – | – | – | –
9 | COC(=O)C1CCC(=S)N1C(=O)c1ccccc1 (stereo not given) | > 100 | > 100 | > 100 | > 100 | > 100 | > 100 | > 100 µM | – | > 100 µM | – | – | – | – | – | – | – | – | – | –
10 | O=C1NC(Nc2ccccc2)=NC(C(F)(F)F)(C(F)(F)F)N1 | – | > 100 | > 100 | > 100 | > 100 | > 100 | 79.6 µM | > 100 µM | > 100 µM | > 100 µM | – | – | – | – | – | – | – | – | –
11 | [Cl][Sn]([c]1ccccc1)([c]1ccccc1)[c]1ccccc1 | – | – | – | – | – | 1.02 | 0.325 µM and 0.242 µM and 0.158 µM | 0.114 µM and 0.0651 µM | 0.604 µM and 0.283 µM | 0.899 µM and 0.0997 µM | – | – | – | – | 0.166 µM and 0.114 µM and 0.0408 µM | 0.031 µM and 0.0142 µM | 0.327 | 0.24 µM and 0.148 µM | –
12 | CCOC(=O)CCC(NC(=O)OCc1ccccc1)C(=O)NC(CCC(=O)OCC)C(=O)NC(CCC(=O)OCC)C(=O)NC(CCC(=O)OCC)C(=O)NC(CCC(=O)OCC)C(=O)NC(CCC(=O)OCC)C(=O)NC(CCC(=O)OCC)C(=O)OCC (stereo not given) | > 100 | – | > 100 | > 100 | > 100 | > 100 | > 100 µM | > 100 µM | > 100 µM | > 100 µM | – | – | – | – | – | – | – | – | –
13 | NC(=O)NNc1nc(-c2ccccc2)cs1 | > 100 | > 100 | > 100 | – | > 100 | > 100 | > 100 µM | > 100 µM | > 100 µM | – | – | – | – | – | – | – | – | – | –
14 | NS(=O)(=O)c1ccc(/C=C/c2ccc(F)cc2)cc1 | > 100 | > 100 | 33.3 | > 100 | > 100 | > 100 | – | > 100 µM | > 100 µM | > 100 µM | 36.3 | – | 9.97 | 34.4 | – | – | – | – | 37.3
15 | Cc1csc(NC23CC4CC(CC(C4)C2)C3)[n+]1C(P(=O)([O-])O)P(=O)(O)O (stereo not given) | > 100 | > 100 | > 100 | > 100 | – | > 100 | > 100 µM | – | > 100 µM | – | – | – | – | – | – | – | – | – | –
16 | N#CC1(C#N)NC(c2cccs2)C(C#N)(C#N)NC1c1cccs1 (stereo not given) | > 100 | > 100 | > 100 | – | > 100 | > 100 | 74.2 µM | > 100 µM | > 100 µM | 41.3 µM | – | – | – | – | – | – | – | – | –
17 | Nc1ccc(S(=O)(=O)c2ccc(NCN3C(=O)NC(=O)C(=O)C3=O)cc2)cc1 | > 100 | – | > 100 | > 100 | > 100 | > 100 | > 100 µM | > 100 µM | > 100 µM | – | – | – | – | – | – | – | – | – | –
18 | CC(=O)Oc1cc2c(cc1OC(C)=O)OCC(c1ccc(C)cc1)C2 (stereo not given) | 40.4 | 41.8 | 40.7 | – | 25.7 | – | 13.6 µM | 33.2 µM | – | 6.56 µM | – | – | – | – | – | – | – | – | –
19 | Cc1cc(C)nc(SC2=C(Nc3ccc(C)c(Cl)c3)C(=O)N(Cc3ccccc3)C2=O)n1 | – | > 160 | – | – | > 160 | – | – | – | > 160 µM | – | – | > 160 | – | > 160 | – | – | – | > 160 µM | –
20 | Cc1ccc(S(=O)(=O)n2c3ccc(Br)cc3c3nc4ccccc4nc32)cc1 | > 100 | > 100 | > 100 | > 100 | > 100 | > 100 | > 100 µM | > 100 µM | > 100 µM | – | – | – | – | – | – | – | – | – | –
21 | O=C(N/N=C/C=C/c1ccc([N+](=O)[O-])o1)c1cc2ccccc2cc1O | 5.02 | 3.35 | 4.23 | – | 2.77 | 9.97 | 1.48 µM | 18.9 µM | 8.13 µM | 11.3 µM | 0.933 | 1.84 | 0.465 | 1.06 | 0.349 µM | 2.02 µM | 2.02 | 2.44 µM | 1.43
22 | CN(C)C(=O)OC1C(=O)N(C)c2ccc(Cl)cc2C2(c3ccccc3)N1C2(Cl)Cl (stereo not given) | > 100 | > 100 | > 100 | – | > 100 | – | > 100 µM | > 100 µM | > 100 µM | > 100 µM | – | – | – | – | – | – | – | – | –
